Reference: patent US10028957B2, “Depot formulations” (DURECT CORPORATION, priority 2007, dated 2018)

Experiment: Solvent capacity experiments (solvent added until single phase persists one week)
Format: physicochemical
Conditions: fixed PLGA/SAIB ratio, room temperature, weight percent of total final weight
[1] = Example 7, PLGA 4700 Da, 65/35, hexanediol initiated
[2] = Example 8, PLGA 6600 Da, 65/35, dodecanol initiated

Row | amount of solvent needed for a single phase solution that remained single phase for one week [1] | amount of solvent needed for a single phase solution that remained single phase for one week [2] | Structure (SMILES)
1 | 26.44 wt % | 19.70 wt % | OCc1ccccc1 [BA, benzyl alcohol]
2 | 42.64 wt % | 31.22 wt % | C[S+](C)[O-] [DMSO, dimethylsulfoxide]
